Laboratory results reported in article PMC6131557, “Selective Cytotoxicity of Dihydroorotate Dehydrogenase Inhibitors to Human Cancer Cells Under Hypoxia and Nutrient-Deprived Conditions” (Frontiers in Pharmacology, 2018).
Read-outs that look alike come from different tables or passages of the source.

What was measured:
Complexes I–III = experiment: NADH-cytochrome c reductase (complexes I–III) activity, bovine mitochondria; format: biochemical
Method: (§1) Recombinant human DHODH was purified, crystallized, and assayed as previously described ([Inaoka et al., 2016]) without modification. Bovine mitochondrial fractions were prepared as previously described ([Kita et al., 1988]) and NADH dehydrogenase (complex I), succinate:quinone reductase (complex II), quinol oxidase (complexes III–IV), NADH-cytochrome c reductase (complexes I–III), and succinate-cytochrome c (complexes II–III) activities were assayed following an established method ([Takamiya et al., 1986]; [Miyadera et al., 2001]; [Matsumoto et al., 2008]; [Kido et al., 2010]; [Nihashi et al., 2017]).

[1] = target: T1, human dihydroorotate dehydrogenase (HsDHODH) (Homo sapiens, UniProt Q02127); experiment: Inhibition of recombinant human DHODH enzyme activity; format: biochemical; settings: for IC50: recombinant human DHODH
T1 construct: made in house

mammalian complex III = test system: mammalian complex III; set-up: method as in Berry et al., 2010; settings: ref Berry et al., 2010; read-out: IC50 against mammalian complex III; cited from earlier work
Complex II–III = experiment: Succinate-cytochrome c reductase (complexes II–III) activity, bovine mitochondria; format: biochemical
Method: as §1

Complex I = experiment: NADH dehydrogenase (complex I) activity, bovine mitochondria; format: biochemical; settings: at 5 μM
Method: as §1

Complex III = target: T2, Complex III (Bos taurus, UniProt P00157); experiment: Quinol oxidase (complex III) activity, bovine mitochondria; format: biochemical; settings: ubiquinol oxidase activity
T2 construct: from tissue; host or cells: bovine mitochondrial fraction / sub-mitochondrial particles

Complex II = target: T3, Complex II (Bos taurus, UniProt P35720+Q3T189+Q95123); experiment: Succinate:quinone reductase (complex II) activity, bovine mitochondria; format: biochemical
T3 construct: from tissue; host or cells: bovine mitochondrial fraction / sub-mitochondrial particles

KM-12 = experiment: 39-cancer cell panel assay: KM-12; format: cell-based, human; settings: Co
OVCAR-4 = experiment: 39-cancer cell panel assay: OVCAR-4; format: cell-based; settings: Homo sapiens, Ov
DMS114 = experiment: 39-cancer cell panel assay: DMS114; format: cell-based; settings: Homo sapiens, DMS-114, Lu
MKN45 = experiment: 39-cancer cell panel assay: MKN45; format: cell-based; settings: Homo sapiens, MKN-45, St
OVCAR-3 = experiment: 39-cancer cell panel assay: OVCAR-3; format: cell-based; settings: Homo sapiens, Ov
OVCAR-8 = experiment: 39-cancer cell panel assay: OVCAR-8; format: cell-based; settings: Homo sapiens, Ov
NCI-H522 = experiment: 39-cancer cell panel assay: NCI-H522; format: cell-based; settings: Homo sapiens, Lu
PC-3 = experiment: 39-cancer cell panel assay: PC-3; format: cell-based; settings: Homo sapiens, Pro
DMS273 = experiment: 39-cancer cell panel assay: DMS273; format: cell-based; settings: Homo sapiens, DMS-273, Lu
MKN7 = experiment: 39-cancer cell panel assay: MKN7; format: cell-based; settings: Homo sapiens, MKN-7, St
HDF cells = experiment: Cytotoxicity assay (Cell Counting Kit-8 / WST-8) on HDF cells; format: cell-based; settings: Homo sapiens
Method: (§2) For hypoxia and nutrient-deprived culture conditions, cells were incubated under 1% oxygen in glucose and glutamine-free DMEM (Gibco) without FBS.
(§3) DLD-1 or HDF cells were seeded at 2.5 × 10^4 cells/well on a 96-well plate with normal medium, and cultured overnight under normal culture condition. The cells were washed with PBS and the medium was replaced to either normal medium or glucose and glutamine-free DMEM without FBS. Test compounds or DMSO as a control were added to the wells. The cells in normal medium were cultured under normal culture conditions, while cells in nutrient-deprived medium were cultured under hypoxia condition. After 24 or 48 h incubation, the cells were washed with PBS, 100 μl of fresh normal medium, and 10 μl of Cell Counting Kit-8 solution (Donjindo, Japan) was added to each well. After 3 h incubation under normal culture condition, the absorbance was measured at 450 nm using SpectraMax M2e-TUY microplate reader (Molecular Devices). Cell viability of test wells was calculated based on absorbance of control wells containing DMSO according to manufacturer’s protocol.

HCT-116 = experiment: 39-cancer cell panel assay: HCT-116; format: cell-based; settings: Homo sapiens, Co
MDA-MB-231 = experiment: 39-cancer cell panel assay: MDA-MB-231; format: cell-based; settings: Homo sapiens, Br
HBC-5 = experiment: 39-cancer cell panel assay: HBC-5; format: cell-based; settings: Homo sapiens, HBC5, Br
SNB-78 = experiment: 39-cancer cell panel assay: SNB-78; format: cell-based; settings: Homo sapiens, CNS
HCT-15 = experiment: 39-cancer cell panel assay: HCT-15; format: cell-based; settings: Homo sapiens, Co
NCI-H460 = experiment: 39-cancer cell panel assay: NCI-H460; format: cell-based; settings: Homo sapiens, Lu
A549 = experiment: 39-cancer cell panel assay: A549; format: cell-based; settings: Homo sapiens, Lu
MCF-7 = experiment: 39-cancer cell panel assay: MCF-7; format: cell-based; settings: Homo sapiens, MCF7, Br
SF-268 = experiment: 39-cancer cell panel assay: SF-268; format: cell-based; settings: Homo sapiens, CNS
BSY-1 = experiment: 39-cancer cell panel assay: BSY-1; format: cell-based; settings: Homo sapiens, Br
ACHN = experiment: 39-cancer cell panel assay: ACHN; format: cell-based; settings: Homo sapiens, Re
LOX-IMVI = experiment: 39-cancer cell panel assay: LOX-IMVI; format: cell-based; settings: Homo sapiens, Me
HCC2998 = experiment: 39-cancer cell panel assay: HCC2998; format: cell-based; settings: Homo sapiens, HCC 2998, Co
HBC-4 = experiment: 39-cancer cell panel assay: HBC-4; format: cell-based; settings: Homo sapiens, HBC4, Br
SF-295 = experiment: 39-cancer cell panel assay: SF-295; format: cell-based; settings: Homo sapiens, CNS
SNB-75 = experiment: 39-cancer cell panel assay: SNB-75; format: cell-based; settings: Homo sapiens, CNS
DLD-1 cells = experiment: Cytotoxicity assay (Cell Counting Kit-8 / WST-8) on DLD-1 cells; format: cell-based, human; settings: Homo sapiens
Method: as §2, §3

RXF-631L = experiment: 39-cancer cell panel assay: RXF-631L; format: cell-based; settings: Homo sapiens, Re
NCI-H226 = experiment: 39-cancer cell panel assay: NCI-H226; format: cell-based; settings: Homo sapiens, Lu
HT-29 = experiment: 39-cancer cell panel assay: HT-29; format: cell-based; settings: Homo sapiens, Co
MKN28 = experiment: 39-cancer cell panel assay: MKN28; format: cell-based; settings: Homo sapiens, MKN-28, St
MKN1 = experiment: 39-cancer cell panel assay: MKN1; format: cell-based; settings: Homo sapiens, MKN-1, St
SF-539 = experiment: 39-cancer cell panel assay: SF-539; format: cell-based; settings: Homo sapiens, CNS
SK-OV-3 = experiment: 39-cancer cell panel assay: SK-OV-3; format: cell-based; settings: Homo sapiens
OVCAR-5 = experiment: 39-cancer cell panel assay: OVCAR-5; format: cell-based; settings: Homo sapiens, Ov
NCI-H23 = experiment: 39-cancer cell panel assay: NCI-H23; format: cell-based; settings: Homo sapiens, Lu
U251 = experiment: 39-cancer cell panel assay: U251; format: cell-based; settings: Homo sapiens, U-251, CNS
DU-145 = experiment: 39-cancer cell panel assay: DU-145; format: cell-based; settings: Homo sapiens, Pro
MKN74 = experiment: 39-cancer cell panel assay: MKN74; format: cell-based; settings: Homo sapiens, MKN-74, St
St-4 = experiment: 39-cancer cell panel assay: St-4; format: cell-based; settings: Homo sapiens
[2] = purified enzyme fixed at 10 nM, read-out: IC50 (nM), inhibition of human DHODH
[3] = read-out: IC50 (μM) HDF (24 h) Hypoxia nutrient (-), hypoxia (1% oxygen), nutrient (-)
[4] = read-out: IC50 (μM) HDF (24 h) Normoxia nutrient (+), normoxia, nutrient (+)
[5] = read-out: IC50 (μM) DLD-1 (24 h) Hypoxia nutrient (-), DLD-1, 24 h, hypoxia (1% oxygen), nutrient (-)
[6] = read-out: IC50 (μM) DLD-1 (24 h) Normoxia nutrient (+), DLD-1, 24 h, normoxia, nutrient (+)
[7] = DLD-1, 48 h, hypoxia (1% oxygen), nutrient (-), read-out: IC50 (μM) DLD-1 (48 h) Hypoxia nutrient (-)
[8] = DLD-1, 48 h, normoxia, nutrient (+), read-out: IC50 (μM) DLD-1 (48 h) Normoxia nutrient (+)

T3 sequence (P31039 45-665 partner limits assumed): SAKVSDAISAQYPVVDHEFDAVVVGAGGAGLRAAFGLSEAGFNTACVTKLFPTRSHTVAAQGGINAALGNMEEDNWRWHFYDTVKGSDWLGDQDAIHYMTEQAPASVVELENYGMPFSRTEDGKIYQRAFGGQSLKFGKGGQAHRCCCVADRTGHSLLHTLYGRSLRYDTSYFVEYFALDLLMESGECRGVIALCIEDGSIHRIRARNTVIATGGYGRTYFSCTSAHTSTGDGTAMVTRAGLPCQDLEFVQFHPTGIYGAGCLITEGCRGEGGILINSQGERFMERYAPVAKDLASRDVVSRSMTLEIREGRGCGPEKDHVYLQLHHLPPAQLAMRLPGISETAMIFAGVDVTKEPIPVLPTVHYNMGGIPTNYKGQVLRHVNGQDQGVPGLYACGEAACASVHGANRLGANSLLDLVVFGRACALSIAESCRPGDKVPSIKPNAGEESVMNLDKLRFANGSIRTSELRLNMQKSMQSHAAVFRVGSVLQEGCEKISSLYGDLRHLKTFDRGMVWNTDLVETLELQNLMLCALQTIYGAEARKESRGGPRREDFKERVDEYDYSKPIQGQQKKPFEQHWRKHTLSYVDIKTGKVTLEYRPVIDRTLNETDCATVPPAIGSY
T3 sequence (Q3T189 29-280): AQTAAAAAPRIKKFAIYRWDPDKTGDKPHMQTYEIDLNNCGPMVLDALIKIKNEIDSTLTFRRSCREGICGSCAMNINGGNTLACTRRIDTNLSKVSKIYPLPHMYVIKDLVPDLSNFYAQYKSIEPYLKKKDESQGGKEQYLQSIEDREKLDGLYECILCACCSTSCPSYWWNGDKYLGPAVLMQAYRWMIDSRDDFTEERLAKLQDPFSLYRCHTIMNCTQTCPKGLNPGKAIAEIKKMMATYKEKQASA
T3 sequence (P35720 30-169): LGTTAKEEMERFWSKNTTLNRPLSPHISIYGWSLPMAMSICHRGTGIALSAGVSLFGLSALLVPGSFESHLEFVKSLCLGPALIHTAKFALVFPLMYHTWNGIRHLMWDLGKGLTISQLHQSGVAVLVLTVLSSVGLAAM
T3 sequence (Q95123 56-158): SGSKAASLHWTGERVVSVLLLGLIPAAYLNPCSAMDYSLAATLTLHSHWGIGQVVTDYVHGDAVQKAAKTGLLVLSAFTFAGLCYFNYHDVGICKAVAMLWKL
T1 sequence (Q02127 whole entry): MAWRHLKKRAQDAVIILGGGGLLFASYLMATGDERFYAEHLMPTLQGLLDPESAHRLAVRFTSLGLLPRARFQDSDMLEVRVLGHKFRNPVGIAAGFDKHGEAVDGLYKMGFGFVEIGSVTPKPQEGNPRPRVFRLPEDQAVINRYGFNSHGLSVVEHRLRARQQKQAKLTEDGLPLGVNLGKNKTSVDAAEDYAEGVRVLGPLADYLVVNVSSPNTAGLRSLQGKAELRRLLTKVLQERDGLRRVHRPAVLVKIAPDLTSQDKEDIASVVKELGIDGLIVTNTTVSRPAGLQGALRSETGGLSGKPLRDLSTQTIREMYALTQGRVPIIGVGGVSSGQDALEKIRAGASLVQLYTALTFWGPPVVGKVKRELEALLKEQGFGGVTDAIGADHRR

## CC(/C=C/[C@@]1(C)[C@H](C)CCC(=O)[C@@H]1C)=C\Cc1c(O)c(Cl)c(C)c(C=O)c1O [Compound 10, Ascochlorin]
Complexes I–III
  IC50: 0.0033 ± 0.0001 µM
[1]; at 1,000 nM, read-out: Inhibition of HsDHODH activity (value in parentheses)
  inhibition at 1 µM: 33%
[1]; Table 6, read-out: IC50 (μM) HsDHODH
  IC50: 2.3 ± 1.9 µM
[1]; [2]
  IC50: > 1 µM
Mammalian complex III
  IC50: 0.013 µM
Complex II–III
  IC50: 0.0069 ± 0.0002 µM
Complex I
  Inhibition (%) Complex I: 6.8 ± 4.1%
Complex III
  inhibition at 5 µM: 94 ± 2.4%
Complex II
  inhibition at 5 µM: 3.6 ± 8.5%

## COC(=O)/C(C)=C/CC/C(C)=C/Cc1c(O)c(Cl)c(C)c(C=O)c1O [Compound 9]
Complexes I–III
  IC50: 1 ± 0.02 µM
KM-12
  GI50 (μM) KM-12: 6.4 µM
OVCAR-4
  GI50: 11 µM
DMS114
  GI50: 15 µM
MKN45
  GI50: 14 µM
OVCAR-3
  GI50: 5.3 µM
OVCAR-8
  GI50: 9.1 µM
[1]; [2]
  IC50: ~0.005 µM
NCI-H522
  GI50: 5.3 µM
PC-3
  GI50: 22 µM
DMS273
  GI50: 3 µM
MKN7
  GI50: 13 µM
HDF cells; [3]
  IC50: 3.1 ± 0.19 µM
HDF cells; [4]
  IC50: > 100 µM
HCT-116
  GI50: 2.5 µM
MDA-MB-231
  GI50: 14 µM
HBC-5
  GI50: 28 µM
SNB-78
  GI50: 8.8 µM
HCT-15
  GI50: 0.83 µM
NCI-H460
  GI50: 4.3 µM
A549
  GI50: 4.7 µM
MCF-7
  GI50: 7.3 µM
SF-268
  GI50: 8.1 µM
BSY-1
  GI50: 27 µM
Complex II–III
  IC50: 5.7 ± 0.37 µM
Complex I
  Inhibition (%) Complex I: 7.6 ± 4.2%
ACHN
  GI50: 9.9 µM
LOX-IMVI
  GI50: 2.1 µM
HCC2998
  GI50: 17 µM
HBC-4
  GI50: 5.6 µM
Complex III
  inhibition at 5 µM: > 80%
SF-295
  GI50: 11 µM
SNB-75
  GI50: 9.7 µM
DLD-1 cells; [5]
  IC50: 1.6 ± 0.42 µM
DLD-1 cells; [6]
  IC50: > 100 µM
DLD-1 cells; [7]
  IC50: 0.67 ± 0.066 µM
DLD-1 cells; [8]
  IC50: > 100 µM
RXF-631L
  GI50: 8.4 µM
NCI-H226
  GI50: 13 µM
HT-29
  GI50: 6.5 µM
Complex II
  inhibition at 5 µM: 5.3 ± 4.1%
MKN28
  GI50: 12 µM
MKN1
  GI50: 14 µM
SF-539
  GI50: 0.54 µM
SK-OV-3
  GI50: 11 µM
OVCAR-5
  GI50: 12 µM
NCI-H23
  GI50: 7.8 µM
U251
  GI50: 0.97 µM
DU-145
  GI50: 10 µM
MKN74
  GI50: 14 µM
St-4
  GI50: 7.5 µM

## CC(=O)OC(C)/C(C)=C/CC/C(C)=C/Cc1c(O)c(Cl)c(C)c(C=O)c1O (stereo not drawn) [Compound 7]
Complexes I–III
  IC50: 0.46 ± 0.01 µM
KM-12
  GI50 (μM) KM-12: 5.7 µM
OVCAR-4
  GI50: 27 µM
DMS114
  GI50: 14 µM
MKN45
  GI50: 20 µM
OVCAR-3
  GI50: 13 µM
OVCAR-8
  GI50: 8.8 µM
[1]; [2]
  IC50: 0.0064 ± 0.0002 µM
NCI-H522
  GI50: 4.9 µM
PC-3
  GI50: 15 µM
DMS273
  GI50: 0.91 µM
MKN7
  GI50: 16 µM
HDF cells; [3]
  IC50: 3.4 ± 0.36 µM
HDF cells; [4]
  IC50: > 100 µM
HCT-116
  GI50: 1.5 µM
MDA-MB-231
  GI50: 11 µM
HBC-5
  GI50: 25 µM
SNB-78
  GI50: 21 µM
HCT-15
  GI50: 0.58 µM
NCI-H460
  GI50: 0.94 µM
A549
  GI50: 3.3 µM
MCF-7
  GI50: 4.9 µM
SF-268
  GI50: 5 µM
BSY-1
  GI50: 20 µM
Complex II–III
  IC50: 2.3 ± 0.16 µM
Complex I
  Inhibition (%) Complex I: 15 ± 2.3%
ACHN
  GI50: 9.9 µM
LOX-IMVI
  GI50: 1.5 µM
HCC2998
  GI50: 13 µM
HBC-4
  GI50: 5 µM
Complex III
  inhibition at 5 µM: > 80%
SF-295
  GI50: 8 µM
SNB-75
  GI50: 22 µM
DLD-1 cells; [5]
  IC50: 2 ± 0.19 µM
DLD-1 cells; [6]
  IC50: > 100 µM
DLD-1 cells; [7]
  IC50: 0.95 ± 0.059 µM
DLD-1 cells; [8]
  IC50: > 100 µM
RXF-631L
  GI50: 7.5 µM
NCI-H226
  GI50: 11 µM
HT-29
  GI50: 3.2 µM
Complex II
  inhibition at 5 µM: 3.2 ± 6.7%
MKN28
  GI50: 11 µM
MKN1
  GI50: 16 µM
SF-539
  GI50: 0.27 µM
SK-OV-3
  GI50: 12 µM
OVCAR-5
  GI50: 18 µM
NCI-H23
  GI50: 15 µM
U251
  GI50: 1.5 µM
DU-145
  GI50: 14 µM
MKN74
  GI50: 11 µM
St-4
  GI50: 13 µM
